From patent US7842690B2, “Cyclic hydroxylamine as psychoactive compounds” (BTG International Limited, priority 2003, dated 2010) come the findings set out here.

Common to all, as to assay type: in vivo
The test system of one assay is BKW male albino mice. The experiment in a line: Black and white box test (Example 10). The settings on record: 0.1 mg/kg IP 40 min before test, 5-min period.
Assay [1] relates to rats. The experiment in a line: Elevated plus maze (X-maze) in rats. The settings on record: 0.125 mg/kg IP 40 min before test, 5-min period. From the text: The X-maze is constructed from Perspex® and comprises four arms (2 open, 2 closed), each 50 cm long by 9.5 wide and 40 high (closed, arms only) connected by a centre square (9.5×9.5). The open arm has a small lip (3 mm) to assist in the retention of the rat on the arm. The apparatus was housed in a room under subdued lighting conditions.
This model is based on the observation of spontaneous activity of rodents placed in an aversive environment produced by height and often spaces. […] Anxiolytic drugs increase the exploratory activity and the number of entries into the open arms. Rats were allowed at least 1 hour to acclimatise to the environment before testing commenced. Drug treatments were given IP in a pseudo-random, blind design, 40 minutes before behavioural testing, as appropriate. Rats were placed onto the centre square of the X-maze facing a specified open arm, and its behaviour was recorded by remote video over a 5 minute experimental period. The behavioural parameters were subsequently assessed by technicians reviewing the videotape and included: entries into each arm type, time spent on each arm type, rearing, stretch attend postures and head dips.

Assay [2] concerns rats. The experiment in a line: Escape deficit test (learned helplessness), antidepressant activity. The settings on record: rats treated IP for 15 days, unavoidable stress 16 h and escape test 24 h after last dosing; out of 30 trials; dose not given. Here is the method: The “Escape deficit” test that derives from the classic paradigm of “learned helplessness” was used, as described by Meloni et al. in Pharmacol. Biochem. Behav. 46, 423-6 (1993) and Gambarana et al. in Behav. Pharmacol. 6, 66-73 (1995) and Neuropsychopharmacol. 21, 247-57 (1999). Exposure to an unavoidable stress induces […], which, after 24 hours, makes the rats unable to escape from a nociceptive stimulus. Rats exposed to unavoidable stress make 0-5 escapes out of 30 trials, while naïve rats realise 26-30 escapes. Classical anti-depressives prevent the occurrence of the escape deficit after chronic treatment (15 days).
Rats were treated intra-peritoneally (IP) for 15 days, and then submitted to the unavoidable stress (16 hours after the last dosing) prior to being subjected to the escape test (24 hours after the last dosing).

The subject of assay [3] is Male rats of the Wistar strain. The experiment in a line: Despair test (forced swim). The settings on record: 5-min test, mean ± S.E.M.
In assay [4] the test system is Male rats of the Wistar strain. The experiment in a line: Reserpine-induced changes in open field behaviour. Particulars: reserpine 0.1 mg/kg SC daily for 14 days, 5-min test, mean ± S.E.M. The method, then: Rats treated with the compound of Example 1 were compared to either rats treated with the classical antidepressant, clomipramine or controls in the despair test (forced swim). The same groups were also tested for the reserpine-induced changes in open field behaviour.
Male rats of the Wistar strain (purchased from Charles River, Italy) weighing 220-240 g were used throughout all experiments. For at least 1 week prior to the experiment, the rats were housed four to a cage at a constant temperature of 21° C., and under a 12-h light/dark cycle (lights on between 08:00 and 20:00), with food and water available ad libitum.
An acute IP injection of clomipramine hydrochloride (50 mg/kg) or of the compound of Example 1 (0.2 and 0.5 mg/kg) or physiological saline was made in animals subjected to the reserpine-induced changes in the open field test (the injection was made together with the last reserpine administration, e.g. 1 h prior to the open field test).
All animals were gently manipulated by experienced facilities' keepers avoiding any environmental or physical stress. Rats subjected to drugs or physiological saline administration received an injection of a 1-mL standard volume of solution with a 23-gauge stainless steel needle of 31 mm length (for […]) or 21 mm length (for SC injections). The animals were randomly assigned to any treatment group and were used only once in the behavioural experiments.
Reserpine-induced changes in open field behaviour was studied according to the method described in Naunyn-Schmiedeberg's Arch. Pharmacol. 293: 109-114 (Vetulani et al., 1976). Reserpine (Sigma, USA) was dissolved in physiological saline and injected daily for 14 days at the dose of 0.1 mg/kg subcutaneously (SC). A period of 1 hour after the last injection of reserpine, animals were subjected to the open field test. This consisted of the measure of ambulation and rearing of the rat in a circular area divided into 17 equal sections and lighted by a centrally suspended lamp. The areas explored by the rat at least with anterior paws was recorded in 5 min test. The episodes of rearing towards the centre or the walls were also recorded in 5 min test.
All data were analysed using univariate random design analysis of variance (one-way ANOVA) and the post hoc Dunnett's test for multiple comparisons. A P-value of 0.05 or less was considered as indicative of a significant difference.

[5] abbreviates: acute 0.2 mg/kg IP 1 h prior to open field test.
[6] abbreviates: acute 0.5 mg/kg IP 1 h prior to open field test.
The mark [7] stands for this setting: acute 0.5 mg/kg IP 1 h prior to open field test, listed as Example 1.

The structures appear in SMILES notation.

`O=C1CCCC=C1C1COCCN1O` (stereo not shown) [Ex. 1 (Abio 09/01), 2-(4-hydroxy-3-morpholinyl)-2-cyclohexenone]: in the assay on BKW male albino mice, the “Atot = Total exploratory activity” value is on record as “+10.4”, the “CB/TB = crossings in the white compartment/time in white” value was −0.05, the “CN/TN = crossings in the black compartment/time in black” value stood at 0.08 and the “Ctot = total number of crossings” value is reported as “+7.5”. Moreover, in the assay with BKW male albino mice, the “FI = Initial potency” value is given as “+11.5”, the “PT = Total passages through the partition” value is “+0.9”, the “RB/TB = rearings in the white compartment/time in white” value is listed as “+0.02” and the “RN/TN = rearings in the black compartment/time in black” value is recorded as “+0.06”. The “Rtot = Total number of rearings” value in the assay on BKW male albino mice is recorded as “+5”. For the same compound, in the assay with BKW male albino mice (signed value), the “TB = time in white section” value was “+53.4”. Besides, in the assay with rats [1], the “% time spent in open arms” value was determined as 39 ± 10% and the “No. of entries in open arms” value is 5.2 ± 1.4. The compound further gave a No. of escapes in the assay on rats [2] of 23.3 ± 1.3. Further, the “Duration of Immobility” value in assay [3] (0.2 mg/kg IP) is 167.00 ± 11.11. Moreover, the “Duration of Immobility” value in assay [3] (0.5 mg/kg IP, 0.5 mg/kg) is listed as 109.83 ± 9.12. Moreover, the “Duration of Immobility” value in assay [3] (0.5 mg/kg IP, listed as Example 1, 0.5 mg/kg) is “significant decrease of immobility time”. Moreover, in assay [4] (setting [5]), the “No. of Floor Units (ambulation)” value stood at 128.1 ± 11.9 and the “Rearing Episodes” value is recorded as 5.9 ± 0.3. In assay [4] (setting [6]), the “No. of Floor Units (ambulation)” value is reported as 92.2 ± 11.1 and the “Rearing Episodes” value came out at 2.2 ± 0.5. Also, in assay [4] (setting [7]), the “No. of Floor Units (ambulation)” value is on record as “decreased ambulation”; the “Rearing Episodes” value is “decreased ambulation (number of floor units entered) and rearing”.
